In the supplement of paper PMC11208160:

Test: recombinant barcode read abundance after kanamycin selection (control-corrected) (log10(CPM+1)); higher = more efficient recombination; sequences stand for … in AGTGCAGAGAAAATCGGCCAGTTTTCTCTGCCTGCAGTCCGCATGCCGT…ATTTATGCAGCGGACTGCCTTTCTCCCAAAGTGATAAACCGGACAGTATCATGGACCGGTTTTCCCGGTAATCCGTATTTGCAAGGTTGGTTTCACT; site = the 11-nt target
Procedure: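 Same pooled E. coli target screen (IS621 bridge recombinase, kanamycin selection, control-corrected CPM, mean of 2 biological replicates). Here the two core-binding nucleotides of the LTG and RTG of the bridge RNA target-binding loop are mutated. Target and donor CT cores are held constant, and the other 9 guide positions match the target. The target is read from the library oligo sequence. Molecule = full bridge RNA written as DNA: nt 1-80 from the library oligo, rest WT scaffold.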

AGGAGGTTTTGGGTTCTAACCTGTTGCCTAG [AGGAGGTCTAG_LTGcore_TT_RTGcore_CT] (site AGGAGGTCTAG) (LTG core: TT, RTG core: CT)
recombinant barcode read abundance (log10): 0.0313

AGGCCTCCATGGGTTCTAACCTGTTGCCTAG [AGGCCTCCTAG_LTGcore_CA_RTGcore_CT] (site AGGCCTCCTAG) (LTG core: CA, RTG core: CT)
recombinant barcode read abundance (log10): 0.44

AGGCCTCCTTGGGTTCTAACCTGTTGCCTAG [AGGCCTCCTAG_LTGcore_CT_RTGcore_CT] (site AGGCCTCCTAG) (LTG core: CT, RTG core: CT)
recombinant barcode read abundance (log10): 1.32

AGGCCTCCTTGGGTTCTAACCTGTTGCCTCG [AGGCCTCCTAG_LTGcore_CT_RTGcore_CG] (site AGGCCTCCTAG) (LTG core: CT, RTG core: CG)
recombinant barcode read abundance (log10): 0.401

AGGCCTCCTTGGGTTCTAACCTGTTGCCTTT [AGGCCTCCTAG_LTGcore_CT_RTGcore_AA] (site AGGCCTCCTAG) (LTG core: CT, RTG core: AA)
recombinant barcode read abundance (log10): 0.116

AGGCCTCGATGGGTTCTAACCTGTTGCCTAG [AGGCCTCCTAG_LTGcore_GA_RTGcore_CT] (site AGGCCTCCTAG) (LTG core: GA, RTG core: CT)
recombinant barcode read abundance (log10): 0.24

AGGCCTCGTTGGGTTCTAACCTGTTGCCTAG [AGGCCTCCTAG_LTGcore_GT_RTGcore_CT] (site AGGCCTCCTAG) (LTG core: GT, RTG core: CT)
recombinant barcode read abundance (log10): 0.148

AGGCCTCTGTGGGTTCTAACCTGTTGCCTAG [AGGCCTCCTAG_LTGcore_TG_RTGcore_CT] (site AGGCCTCCTAG) (LTG core: TG, RTG core: CT)
recombinant barcode read abundance (log10): 0.11

AGGCGGGAGTGGGTTCTAACCTGTTGCGGCT [AGGCGGGCTCC_LTGcore_AG_RTGcore_AG] (site AGGCGGGCTCC) (LTG core: AG, RTG core: AG)
recombinant barcode read abundance (log10): 0.0482

AGGCGGGATTGGGTTCTAACCTGTTGCGGAG [AGGCGGGCTCC_LTGcore_AT_RTGcore_CT] (site AGGCGGGCTCC) (LTG core: AT, RTG core: CT)
recombinant barcode read abundance (log10): 0.447

AGGCGGGATTGGGTTCTAACCTGTTGCGGAT [AGGCGGGCTCC_LTGcore_AT_RTGcore_AT] (site AGGCGGGCTCC) (LTG core: AT, RTG core: AT)
recombinant barcode read abundance (log10): 0.178

AGGCGGGCTTGGGTTCTAACCTGTTGCGGCA [AGGCGGGCTCC_LTGcore_CT_RTGcore_TG] (site AGGCGGGCTCC) (LTG core: CT, RTG core: TG)
recombinant barcode read abundance (log10): 0.0958

AGGCGGGCTTGGGTTCTAACCTGTTGCGGCT [AGGCGGGCTCC_LTGcore_CT_RTGcore_AG] (site AGGCGGGCTCC) (LTG core: CT, RTG core: AG)
recombinant barcode read abundance (log10): 0.172

AGGCGGGCTTGGGTTCTAACCTGTTGCGGTA [AGGCGGGCTCC_LTGcore_CT_RTGcore_TA] (site AGGCGGGCTCC) (LTG core: CT, RTG core: TA)
recombinant barcode read abundance (log10): 0.138

AGGCGGGCTTGGGTTCTAACCTGTTGCGGTG [AGGCGGGCTCC_LTGcore_CT_RTGcore_CA] (site AGGCGGGCTCC) (LTG core: CT, RTG core: CA)
recombinant barcode read abundance (log10): 0.201

AGGCGGGGATGGGTTCTAACCTGTTGCGGAG [AGGCGGGCTCC_LTGcore_GA_RTGcore_CT] (site AGGCGGGCTCC) (LTG core: GA, RTG core: CT)
recombinant barcode read abundance (log10): 0.555

AGGCGGGTCTGGGTTCTAACCTGTTGCGGAG [AGGCGGGCTCC_LTGcore_TC_RTGcore_CT] (site AGGCGGGCTCC) (LTG core: TC, RTG core: CT)
recombinant barcode read abundance (log10): 0.95

AGGCGGGTGTGGGTTCTAACCTGTTGCGGCA [AGGCGGGCTCC_LTGcore_TG_RTGcore_TG] (site AGGCGGGCTCC) (LTG core: TG, RTG core: TG)
recombinant barcode read abundance (log10): 0.0694

AGGCGGTACTGGGTTCTAACCTGTTGCTTGT [AGGCGGTCTAA_LTGcore_AC_RTGcore_AC] (site AGGCGGTCTAA) (LTG core: AC, RTG core: AC)
recombinant barcode read abundance (log10): 0.166

AGGCGGTCATGGGTTCTAACCTGTTGCTTAG [AGGCGGTCTAA_LTGcore_CA_RTGcore_CT] (site AGGCGGTCTAA) (LTG core: CA, RTG core: CT)
recombinant barcode read abundance (log10): 0.322

AGGCGGTCGTGGGTTCTAACCTGTTGCTTCG [AGGCGGTCTAA_LTGcore_CG_RTGcore_CG] (site AGGCGGTCTAA) (LTG core: CG, RTG core: CG)
recombinant barcode read abundance (log10): 0.228

AGGCGGTCTTGGGTTCTAACCTGTTGCTTAA [AGGCGGTCTAA_LTGcore_CT_RTGcore_TT] (site AGGCGGTCTAA) (LTG core: CT, RTG core: TT)
recombinant barcode read abundance (log10): 0.0737

AGGCGGTCTTGGGTTCTAACCTGTTGCTTGA [AGGCGGTCTAA_LTGcore_CT_RTGcore_TC] (site AGGCGGTCTAA) (LTG core: CT, RTG core: TC)
recombinant barcode read abundance (log10): 0.107

AGGCGGTCTTGGGTTCTAACCTGTTGCTTGC [AGGCGGTCTAA_LTGcore_CT_RTGcore_GC] (site AGGCGGTCTAA) (LTG core: CT, RTG core: GC)
recombinant barcode read abundance (log10): 0.784

AGGCGGTCTTGGGTTCTAACCTGTTGCTTGG [AGGCGGTCTAA_LTGcore_CT_RTGcore_CC] (site AGGCGGTCTAA) (LTG core: CT, RTG core: CC)
recombinant barcode read abundance (log10): 0.244

AGGCGGTGATGGGTTCTAACCTGTTGCTTAG [AGGCGGTCTAA_LTGcore_GA_RTGcore_CT] (site AGGCGGTCTAA) (LTG core: GA, RTG core: CT)
recombinant barcode read abundance (log10): 0.09

AGGCGGTGATGGGTTCTAACCTGTTGCTTTC [AGGCGGTCTAA_LTGcore_GA_RTGcore_GA] (site AGGCGGTCTAA) (LTG core: GA, RTG core: GA)
recombinant barcode read abundance (log10): 0.101

AGTCTTAAATGGGTTCTAACCTGTTGCCAAG [AGTCTTACTTG_LTGcore_AA_RTGcore_CT] (site AGTCTTACTTG) (LTG core: AA, RTG core: CT)
recombinant barcode read abundance (log10): 0.182

AGTCTTACTTGGGTTCTAACCTGTTGCCAAC [AGTCTTACTTG_LTGcore_CT_RTGcore_GT] (site AGTCTTACTTG) (LTG core: CT, RTG core: GT)
recombinant barcode read abundance (log10): 0.0371

AGTCTTACTTGGGTTCTAACCTGTTGCCACT [AGTCTTACTTG_LTGcore_CT_RTGcore_AG] (site AGTCTTACTTG) (LTG core: CT, RTG core: AG)
recombinant barcode read abundance (log10): 0.0729

AGTCTTACTTGGGTTCTAACCTGTTGCCAGT [AGTCTTACTTG_LTGcore_CT_RTGcore_AC] (site AGTCTTACTTG) (LTG core: CT, RTG core: AC)
recombinant barcode read abundance (log10): 0.0396

AGTCTTAGTTGGGTTCTAACCTGTTGCCAAC [AGTCTTACTTG_LTGcore_GT_RTGcore_GT] (site AGTCTTACTTG) (LTG core: GT, RTG core: GT)
recombinant barcode read abundance (log10): 0

AGTCTTATGTGGGTTCTAACCTGTTGCCAAG [AGTCTTACTTG_LTGcore_TG_RTGcore_CT] (site AGTCTTACTTG) (LTG core: TG, RTG core: CT)
recombinant barcode read abundance (log10): 0.0537

AGTCTTATGTGGGTTCTAACCTGTTGCCACA [AGTCTTACTTG_LTGcore_TG_RTGcore_TG] (site AGTCTTACTTG) (LTG core: TG, RTG core: TG)
recombinant barcode read abundance (log10): 0.0473

ATGCTTTAGTGGGTTCTAACCTGTTGCCTCT [ATGCTTTCTAG_LTGcore_AG_RTGcore_AG] (site ATGCTTTCTAG) (LTG core: AG, RTG core: AG)
recombinant barcode read abundance (log10): 0.0908

ATGCTTTATTGGGTTCTAACCTGTTGCCTAT [ATGCTTTCTAG_LTGcore_AT_RTGcore_AT] (site ATGCTTTCTAG) (LTG core: AT, RTG core: AT)
recombinant barcode read abundance (log10): 0.153

ATGCTTTCATGGGTTCTAACCTGTTGCCTAG [ATGCTTTCTAG_LTGcore_CA_RTGcore_CT] (site ATGCTTTCTAG) (LTG core: CA, RTG core: CT)
recombinant barcode read abundance (log10): 0.0483

ATGCTTTCTTGGGTTCTAACCTGTTGCCTCG [ATGCTTTCTAG_LTGcore_CT_RTGcore_CG] (site ATGCTTTCTAG) (LTG core: CT, RTG core: CG)
recombinant barcode read abundance (log10): 0.21

ATGCTTTCTTGGGTTCTAACCTGTTGCCTTA [ATGCTTTCTAG_LTGcore_CT_RTGcore_TA] (site ATGCTTTCTAG) (LTG core: CT, RTG core: TA)
recombinant barcode read abundance (log10): 0.0193

ATGCTTTCTTGGGTTCTAACCTGTTGCCTTT [ATGCTTTCTAG_LTGcore_CT_RTGcore_AA] (site ATGCTTTCTAG) (LTG core: CT, RTG core: AA)
recombinant barcode read abundance (log10): 0.103

ATGCTTTTCTGGGTTCTAACCTGTTGCCTAG [ATGCTTTCTAG_LTGcore_TC_RTGcore_CT] (site ATGCTTTCTAG) (LTG core: TC, RTG core: CT)
recombinant barcode read abundance (log10): 0.439

ATGCTTTTCTGGGTTCTAACCTGTTGCCTGA [ATGCTTTCTAG_LTGcore_TC_RTGcore_TC] (site ATGCTTTCTAG) (LTG core: TC, RTG core: TC)
recombinant barcode read abundance (log10): 0.187

ATGCTTTTTTGGGTTCTAACCTGTTGCCTAG [ATGCTTTCTAG_LTGcore_TT_RTGcore_CT] (site ATGCTTTCTAG) (LTG core: TT, RTG core: CT)
recombinant barcode read abundance (log10): 0.239

ATGTCCCAATGGGTTCTAACCTGTTGCTCAG [ATGTCCCCTGA_LTGcore_AA_RTGcore_CT] (site ATGTCCCCTGA) (LTG core: AA, RTG core: CT)
recombinant barcode read abundance (log10): 0.274
